Results reported in patent US20110086759A1, “CHEMICAL COMPOUNDS” (SYNGENTA CROP PROTECTION, INC., priority 2007, published 2011).

Assays:
Assay type in all cases: in vivo
[1] = test system: Alopecurus myosuroides (ALOMY); experiment: Pre-emergence biological efficacy, glasshouse pot test; conditions: 312 h, pre-emergence, 1,000 g/ha, evaluated after 13 days (100=total damage; 0=no damage), read-out: Percentage damage ALOMY
Summary of the method: (§1)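 One day after sowing in standard soil, pots were sprayed with compound in acetone/water (50:50) with 0.5% Tween 20, at 1000 or 250 g/ha. Plants grew at 24/16° C day/night, 14 h light, 65% humidity. Damage was scored after 13 days (0 = none, 100 = total).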

[2] = test system: Amaranthus retoflexus (AMARE); experiment: as above; conditions: Amaranthus retroflexus, 312 h; pre-emergence, 1,000 g/ha, evaluated after 13 days (100=total damage; 0=no damage); read-out: Percentage damage AMARE
Summary of the method: as §1

[3] = test system: Echinochloa crus-galli (ECHCG); experiment: as above; conditions: 312 h, pre-emergence, 1,000 g/ha, evaluated after 13 days (100=total damage; 0=no damage), read-out: Percentage damage ECHCG
Summary of the method: as §1

[4] = test system: Ipomea hederaceae (IPOHE); experiment: as above; conditions: Ipomoea hederacea, 312 h; pre-emergence, 1,000 g/ha, evaluated after 13 days (100=total damage; 0=no damage); read-out: Percentage damage IPOHE
Summary of the method: as §1

Setaria faberi (SETFA) [5] = experiment: as above; conditions: 312 h, pre-emergence, 1,000 g/ha, evaluated after 13 days (100=total damage; 0=no damage), read-out: Percentage damage SETFA
Summary of the method: as §1

Solanum nigrum (SOLNI) [6] = experiment: as above; conditions: 312 h, pre-emergence, 1,000 g/ha, evaluated after 13 days (100=total damage; 0=no damage), read-out: Percentage damage SOLNI
Summary of the method: as §1

[7] = test system: Alopecurus myosuroides (ALOMY); experiment: Post-emergence biological efficacy, glasshouse pot test; conditions: 312 h, post-emergence, 1,000 g/ha, evaluated after 13 days (100=total damage; 0=no damage), read-out: Percentage damage caused to weed species, ALOMY
Summary of the method: (§2)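 Pot-grown weeds were sprayed 8 days after sowing with test compound in acetone/water (50:50) with 0.5% Tween 20 at 1000 or 250 g/ha. Glasshouse at 24/16° C day/night, 14 h light, 65% humidity. Damage scored 0-100 (100 = total damage) after 13 days.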

[8] = test system: Amaranthus retoflexus (AMARE); experiment: as above; conditions: Amaranthus retroflexus, 312 h; post-emergence, 1,000 g/ha, evaluated after 13 days (100=total damage; 0=no damage); read-out: Percentage damage caused to weed species, AMARE
Summary of the method: as §2

[9] = test system: Echinochloa crus-galli (ECHCG); experiment: as above; conditions: 312 h, post-emergence, 1,000 g/ha, evaluated after 13 days (100=total damage; 0=no damage), read-out: Percentage damage caused to weed species, ECHCG
Summary of the method: as §2

[10] = test system: Ipomea hederaceae (IPOHE); experiment: as above; conditions: Ipomoea hederacea, 312 h; post-emergence, 1,000 g/ha, evaluated after 13 days (100=total damage; 0=no damage); read-out: Percentage damage caused to weed species, IPOHE
Summary of the method: as §2

Setaria faberi (SETFA) [11] = experiment: as above; conditions: 312 h, post-emergence, 1,000 g/ha, evaluated after 13 days (100=total damage; 0=no damage), read-out: Percentage damage caused to weed species, SETFA
Summary of the method: as §2

Solanum nigrum (SOLNI) [12] = experiment: as above; conditions: 312 h, post-emergence, 1,000 g/ha, evaluated after 13 days (100=total damage; 0=no damage), read-out: Percentage damage caused to weed species, SOLNI
Summary of the method: as §2

| SMILES | pest or weed control at 1000 g/ha [1] | pest or weed control at 1000 g/ha [2] | pest or weed control at 1000 g/ha [3] | pest or weed control at 1000 g/ha [4] | pest or weed control at 1000 g/ha (Setaria faberi (SETFA) [5]) | pest or weed control at 1000 g/ha (Solanum nigrum (SOLNI) [6]) | pest or weed control at 1000 g/ha [7] | pest or weed control at 1000 g/ha [8] | pest or weed control at 1000 g/ha [9] | pest or weed control at 1000 g/ha [10] | pest or weed control at 1000 g/ha (Setaria faberi (SETFA) [11]) | pest or weed control at 1000 g/ha (Solanum nigrum (SOLNI) [12]) |
| --- | --- | --- | --- | --- | --- | --- | --- | --- | --- | --- | --- | --- |
| COC(=O)c1nc(C2CC2)nc(N[C@H]2COC[C@H]2O)c1Cl [4-38 (S,S), 5-Chloro-2-cyclopropyl-4-[(3S, 4S)-4-hydroxytetra-hydrofuran-3-ylamino]-6-methoxycarbonyl-pyrimidine] | 20% | 100% | 30% | 70% | 30% | 80% | 30% | 100% | 10% | 30% | 60% | 80% |
| COC(=O)c1nc(C2CC2)nc(NCCc2c[nH]c3ccccc23)c1Cl [Compound 4-226, 5-Chloro-2-cyclopropyl-4-[2-(indol-3-yl)ethylamino]-6-methoxycarbonyl-pyrimidine] | 0% | 70% | 10% | 100% | 0% | 60% | 30% | 100% | 10% | 60% | 50% | 80% |
| COC(=O)c1nc(C2CC2)nc(NCc2cccc(C(F)(F)F)c2)c1Cl [Compound 4-76, 5-Chloro-2-cyclopropyl-6-methoxycarbonyl-4-(3-trifluoromethyl-phenylmethyl-amino)pyrimidine] | 40% | 60% | 60% | 70% | 50% | 60% | 40% | 100% | 70% | 100% | 90% | 100% |
